In PubChem BioAssay (NCI):
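Grown in 96-well plates, cells were treated for 48 hours with each compound at five concentrations. Insufficient inhibition: endpoint recorded as highest concentration tested. GI50: concentration for 50% inhibition of growth. The concentration for full growth arrest is given as TGI.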

Columns and labels:
Experiment in all cases: NCI-60 cell line screen, 48 h
[1] = tested on: 786-0 renal
[2] = tested on: A498 renal
[3] = tested on: A549 NSCLC
[4] = tested on: ACHN renal
[5] = tested on: BT-549 breast
[6] = tested on: CAKI-1 renal
[7] = tested on: CCRF-CEM leukemia
[8] = tested on: COLO 205 colon
[9] = tested on: DU-145 prostate
[10] = tested on: HCC-2998 colon
[11] = tested on: HCT-116 colon
[12] = tested on: HCT-15 colon
[13] = tested on: HL-60(TB) leukemia
[14] = tested on: HOP-62 NSCLC
[15] = tested on: HOP-92 NSCLC
[16] = tested on: HS 578T breast
[17] = tested on: HT29 colon
[18] = tested on: IGROV1 ovarian
[19] = tested on: K-562 leukemia
[20] = tested on: KM12 colon
[21] = tested on: LOX IMVI melanoma
[22] = tested on: M14 melanoma
[23] = tested on: MALME-3M melanoma
[24] = tested on: MCF7 breast
[25] = tested on: MDA-MB-231 breast
[26] = tested on: MDA-MB-435
[27] = tested on: MOLT-4 leukemia
[28] = tested on: NCI-H226 lung
[29] = tested on: NCI-H23 lung
[30] = tested on: NCI-H460 lung
[31] = tested on: NCI-H522 lung
[32] = tested on: NCI/ADR-RES ovarian
[33] = tested on: OVCAR-3 ovarian
[34] = tested on: OVCAR-4 ovarian
[35] = tested on: OVCAR-5 ovarian
[36] = tested on: OVCAR-8 ovarian
[37] = tested on: PC-3 prostate
[38] = tested on: RPMI-8226 leukemia
[39] = tested on: RXF 393 renal
[40] = tested on: SF-268 CNS
[41] = tested on: SF-295 CNS
[42] = tested on: SF-539 CNS
[43] = tested on: SK-MEL-2 melanoma
[44] = tested on: SK-MEL-28 melanoma
[45] = tested on: SK-MEL-5 melanoma
[46] = tested on: SK-OV-3 ovarian
[47] = tested on: SN12C renal
[48] = tested on: SNB-19 CNS
[49] = tested on: SNB-75 CNS
[50] = tested on: SR leukemia
[51] = tested on: SW-620 colon
[52] = tested on: T-47D breast
[53] = tested on: TK-10 renal
[54] = tested on: U251 CNS
[55] = tested on: UACC-257 melanoma
[56] = tested on: UACC-62 melanoma
[57] = tested on: UO-31 renal

`CN(CCO)C1CCN(c2ccc(Nc3ncc4c5ccnc(F)c5n(C5CCCC5)c4n3)nc2)CC1` was tested. Which GI50 [1] did it give?
The GI50 was 5.12 µM.

What about the TGI [1] of the same molecule?
Its TGI is 26.9 µM.

And the GI50 [2]?
The GI50 was 0.366 µM.

And the TGI [2]?
Its TGI is 14.6 µM.

And the GI50 [3]?
Its GI50 is 2.27 µM.

And the TGI [3]?
Its TGI is 7.9 µM.

What about the GI50 [4] of the same molecule?
The GI50 was 1.98 µM.

And the TGI [4]?
The TGI was 20.6 µM.

And the GI50 [5]?
The GI50 was 13.1 µM.

And the TGI [5]?
The TGI was 31.4 µM.

And the GI50 [6]?
Its GI50 is 4.44 µM.

And the TGI [6]?
Its TGI is 21.3 µM.

What about the GI50 [7] of the same molecule?
The GI50 was 0.208 µM.

What about the TGI [7] of the same molecule?
The TGI was 3.59 µM.

What about the GI50 [8] of the same molecule?
Its GI50 is 0.0817 µM.

What about the TGI [8] of the same molecule?
The TGI was 18.5 µM.

What about the GI50 [9] of the same molecule?
The GI50 was 1.76 µM.

And the TGI [9]?
Its TGI is 3.18 µM.

What about the GI50 [10] of the same molecule?
Its GI50 is 11.1 µM.

And the TGI [10]?
Its TGI is 25.4 µM.

And the GI50 [11]?
The GI50 was 1.85 µM.

And the TGI [11]?
The TGI was 7.36 µM.

And the GI50 [12]?
Its GI50 is 3.01 µM.

And the TGI [12]?
The TGI was 7.79 µM.

What about the GI50 [13] of the same molecule?
Its GI50 is 0.103 µM.

And the TGI [13]?
Its TGI is 8.05 µM.

And the GI50 [14]?
The GI50 was 4.7 µM.

What about the TGI [14] of the same molecule?
The TGI was 25.4 µM.

What about the GI50 [15] of the same molecule?
The GI50 was 11.6 µM.

And the TGI [15]?
The TGI was 28.8 µM.

What about the GI50 [16] of the same molecule?
The GI50 was 6.01 µM.

What about the TGI [16] of the same molecule?
Its TGI is 34.3 µM.

And the GI50 [17]?
Its GI50 is 1.23 µM.

What about the TGI [17] of the same molecule?
Its TGI is 4.45 µM.

And the GI50 [18]?
Its GI50 is 11.7 µM.

And the TGI [18]?
Its TGI is 30.8 µM.

What about the GI50 [19] of the same molecule?
Its GI50 is 1.32 µM.

What about the TGI [19] of the same molecule?
The TGI was 4.08 µM.

And the GI50 [20]?
The GI50 was 0.0514 µM.

What about the TGI [20] of the same molecule?
Its TGI is 1.73 µM.

What about the GI50 [21] of the same molecule?
Its GI50 is 1.02 µM.

And the TGI [21]?
The TGI was 2.24 µM.

And the GI50 [22]?
The GI50 was 11.7 µM.

And the TGI [22]?
The TGI was 32.8 µM.

And the GI50 [23]?
Its GI50 is 12.7 µM.

And the TGI [23]?
Its TGI is 34.5 µM.

What about the GI50 [24] of the same molecule?
The GI50 was 0.106 µM.

What about the TGI [24] of the same molecule?
Its TGI is 3.05 µM.

And the GI50 [25]?
Its GI50 is 6.01 µM.

And the TGI [25]?
The TGI was 24.2 µM.

And the GI50 [26]?
Its GI50 is 5.84 µM.

And the TGI [26]?
Its TGI is 20.7 µM.

What about the GI50 [27] of the same molecule?
Its GI50 is 0.0513 µM.

And the TGI [27]?
Its TGI is 9.74 µM.

What about the GI50 [28] of the same molecule?
The GI50 was 16.3 µM.

And the TGI [28]?
Its TGI is 55 µM.

And the GI50 [29]?
Its GI50 is 7.76 µM.

What about the TGI [29] of the same molecule?
Its TGI is 32.3 µM.

What about the GI50 [30] of the same molecule?
The GI50 was 0.99 µM.

What about the TGI [30] of the same molecule?
Its TGI is 2.44 µM.

What about the GI50 [31] of the same molecule?
The GI50 was 17.2 µM.

And the TGI [31]?
Its TGI is 36.2 µM.

And the GI50 [32]?
The GI50 was 15.3 µM.

And the TGI [32]?
The TGI was 36 µM.

And the GI50 [33]?
The GI50 was 14.9 µM.

What about the TGI [33] of the same molecule?
The TGI was 30.4 µM.

And the GI50 [34]?
Its GI50 is 11.2 µM.

And the TGI [34]?
The TGI was 27.7 µM.

And the GI50 [35]?
Its GI50 is 0.812 µM.

And the TGI [35]?
The TGI was 20.7 µM.

And the GI50 [36]?
Its GI50 is 14.7 µM.

And the TGI [36]?
Its TGI is 43.4 µM.

What about the GI50 [37] of the same molecule?
The GI50 was 8.47 µM.

And the TGI [37]?
Its TGI is 25.8 µM.

What about the GI50 [38] of the same molecule?
Its GI50 is 0.184 µM.

What about the TGI [38] of the same molecule?
Its TGI is 19.8 µM.

What about the GI50 [39] of the same molecule?
The GI50 was 1.73 µM.

And the TGI [39]?
The TGI was 16.8 µM.

And the GI50 [40]?
The GI50 was 12.5 µM.

And the TGI [40]?
Its TGI is 30.9 µM.

And the GI50 [41]?
Its GI50 is 2.22 µM.

What about the TGI [41] of the same molecule?
The TGI was 20.2 µM.

What about the GI50 [42] of the same molecule?
Its GI50 is 4.6 µM.

What about the TGI [42] of the same molecule?
The TGI was 10.5 µM.

And the GI50 [43]?
The GI50 was 20.4 µM.

What about the TGI [43] of the same molecule?
Its TGI is 45.6 µM.

And the GI50 [44]?
The GI50 was 12.3 µM.

And the TGI [44]?
Its TGI is 28.9 µM.

And the GI50 [45]?
The GI50 was 10.9 µM.

What about the TGI [45] of the same molecule?
The TGI was 25.9 µM.

And the GI50 [46]?
The GI50 was 11.1 µM.

What about the TGI [46] of the same molecule?
The TGI was 26 µM.

And the GI50 [47]?
Its GI50 is 12.2 µM.

And the TGI [47]?
The TGI was 31.5 µM.

And the GI50 [48]?
The GI50 was 2.47 µM.

And the TGI [48]?
Its TGI is 33.8 µM.

And the GI50 [49]?
The GI50 was 5.67 µM.

And the TGI [49]?
The TGI was 20.7 µM.

What about the GI50 [50] of the same molecule?
The GI50 was 1.23 µM.

What about the TGI [50] of the same molecule?
Its TGI is 4.61 µM.

What about the GI50 [51] of the same molecule?
Its GI50 is 0.184 µM.

What about the TGI [51] of the same molecule?
Its TGI is 2.21 µM.

And the GI50 [52]?
Its GI50 is 17.5 µM.

And the TGI [52]?
Its TGI is 69.1 µM.

What about the GI50 [53] of the same molecule?
The GI50 was 1.59 µM.

And the TGI [53]?
The TGI was 21.2 µM.

What about the GI50 [54] of the same molecule?
The GI50 was 2.74 µM.

What about the TGI [54] of the same molecule?
Its TGI is 7.5 µM.

What about the GI50 [55] of the same molecule?
The GI50 was 17.6 µM.

And the TGI [55]?
Its TGI is 40 µM.

And the GI50 [56]?
The GI50 was 16.7 µM.

What about the TGI [56] of the same molecule?
The TGI was 46 µM.

And the GI50 [57]?
Its GI50 is 1.86 µM.

And the TGI [57]?
Its TGI is 20.9 µM.
